Experimental data as given in patent US10888550B2, “Pyrazole derivatives as MALT1 inhibitors” (Janssen Pharmaceutica NV, priority 2018, dated 2021).

Key:
[1] = test system: IL6 secretion, OCI-LY3 cells; assay: Human IL6 Mesoscale assay (OCI-LY3); assay type: cell-based; details: 24 h incubation
[2] = biological target: full-length MALT1 protein (Strep-MALT1(1-824)-His) (Homo sapiens (Human), UniProt Q9UDY8); assay: MALT1 Biochemical Protease Assay; details: read-out: MALT1_Biochemical activity (Ac-LRSR-amc) IC50; 10 nM FL MALT1, 200 μM Ac-LRSR-AMC, 50 min pre-incubation, 4 h at RT
Excerpt: From this an ICso value (inhibitory concentration causing 50% inhibition) can be obtained.

[3] = test system: IL10 secretion, OCI-LY3 cells; assay: Human IL10 Mesoscale assay (OCI-LY3); assay type: cell-based; details: 24 h incubation

Sequence of full-length MALT1 protein (Strep-MALT1(1-824)-His) (Q9UDY8 whole entry): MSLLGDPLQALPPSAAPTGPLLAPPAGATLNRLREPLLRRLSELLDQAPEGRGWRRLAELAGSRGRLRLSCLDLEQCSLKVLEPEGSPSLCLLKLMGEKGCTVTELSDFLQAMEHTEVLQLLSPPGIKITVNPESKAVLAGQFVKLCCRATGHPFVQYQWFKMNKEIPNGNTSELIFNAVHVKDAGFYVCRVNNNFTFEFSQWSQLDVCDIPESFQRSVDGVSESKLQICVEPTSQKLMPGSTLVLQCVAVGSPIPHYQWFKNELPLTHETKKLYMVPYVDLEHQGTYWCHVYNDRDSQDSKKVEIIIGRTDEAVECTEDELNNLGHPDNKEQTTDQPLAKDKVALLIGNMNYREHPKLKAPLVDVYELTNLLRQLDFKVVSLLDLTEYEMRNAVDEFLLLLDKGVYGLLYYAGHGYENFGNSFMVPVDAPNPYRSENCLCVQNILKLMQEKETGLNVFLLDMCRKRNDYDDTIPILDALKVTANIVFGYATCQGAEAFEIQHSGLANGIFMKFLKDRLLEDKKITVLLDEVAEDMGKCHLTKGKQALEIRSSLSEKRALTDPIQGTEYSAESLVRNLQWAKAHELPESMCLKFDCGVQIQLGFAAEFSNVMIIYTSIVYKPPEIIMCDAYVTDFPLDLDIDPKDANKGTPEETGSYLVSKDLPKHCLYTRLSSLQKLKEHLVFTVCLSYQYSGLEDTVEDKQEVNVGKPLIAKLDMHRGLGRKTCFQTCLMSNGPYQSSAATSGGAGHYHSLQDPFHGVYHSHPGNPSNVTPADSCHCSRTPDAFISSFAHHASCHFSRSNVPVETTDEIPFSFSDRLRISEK

Row | SMILES | IC50 [1] [nM] | IC50 [2] [nM] | IC50 [3] [nM]
1 | NC(=O)c1ccc(-n2ncc(C(=O)Nc3cnc(-n4nccn4)c(Cl)c3)c2C(F)(F)F)c2ccnn12 [Cpd 16, 4-(4-((5-chloro-6-(2H-1,2,3-triazol-2-yl)pyridin-3-yl)carbamoyl)-5-(trifluoromethyl)-1H-pyrazol-1-yl)pyrazolo[1,5-a]pyridine-7-carboxamide] | 42 | 25 | 41
2 | N#Cc1ccc(-n2ncc(C(=O)Nc3cnc(-n4nccn4)c(Cl)c3)c2C(F)(F)F)n2ccnc12 [Cpd 2, N-(5-chloro-6-(2H-1,2,3-triazol-2-yl)pyridin-3-yl)-1-(8-cyanoimidazo[1,2-a]pyridin-5-yl)-5-(trifluoromethyl)-1H-pyrazole-4-carboxamide] | 83 | 38 | 47
3 | CO[C@H](C)c1ncc(NC(=O)c2cnn(-c3ccc(F)c4nccn34)c2C(F)(F)F)cc1Cl (single isomer, unassigned) [Cpd 19, (*R)—N-(5-chloro-6-(1-methoxyethyl)pyridin-3-yl)-1-(8-fluoroimidazo[1,2-a]pyridin-5-yl)-5-(trifluoromethyl)-1H-pyrazole-4-carboxamide] |  | 2820 | 
4 | CO[C@@H](C)c1ncc(NC(=O)c2cnn(-c3ccc(F)c4nccn34)c2C(F)(F)F)cc1Cl (single isomer, unassigned) [Cpd 17, (*S)—N-(5-chloro-6-(1-methoxyethyl)pyridin-3-yl)-1-(8-fluoroimidazo[1,2-a]pyridin-5-yl)-5-(trifluoromethyl)-1H-pyrazole-4-carboxamide] |  | 2340 | 
5 | CS(=O)(=O)c1c(C(=O)Nc2cnc(-n3nccn3)c(Cl)c2)cnn1-c1ccc(F)c2nccn12 [Cpd 8, N-(5-chloro-6-(2H-1,2,3-triazol-2-yl)pyridin-3-yl)-1-(8-fluoroimidazo[1,2-a]pyridin-5-yl)-5-(methylsulfonyl)-1H-pyrazole-4-carboxamide] |  | 457 | 
6 | CS(C)(=O)=Nc1ncc(NC(=O)c2cnn(-c3ccc(F)c4nccn34)c2C(F)(F)F)cc1F [Cpd 32, N-(6-((dimethyl(oxo)-λ^6-sulfanylidene)amino)-5-fluoropyridin-3-yl)-1-(8-fluoroimidazo[1,2-a]pyridin-5-yl)-5-(trifluoromethyl)-1H-pyrazole-4-carboxamide] |  | 8130 | 
7 | O=C(Nc1cnc(-n2cccn2)c(Cl)c1)c1cnn(-c2ccc(F)c3nccn23)c1C(F)(F)F [Cpd 3, N-(5-chloro-6-(1H-pyrazol-1-yl)pyridin-3-yl)-1-(8-fluoroimidazo[1,2-a]pyridin-5-yl)-5-(trifluoromethyl)-1H-pyrazole-4-carboxamide] | 151 | 251 | 114
8 | NC(=O)c1ccc(-n2ncc(C(=O)Nc3ccnc(C(F)(F)F)c3)c2C(F)(F)F)c2ccnn12 [Cpd 12, 4-(5-(trifluoromethyl)-4-((2-(trifluoromethyl)pyridin-4-yl)carbamoyl)-1H-pyrazol-1-yl)pyrazolo[1,5-a]pyridine-7-carboxamide] | 288 | 219 | 155
9 | O=C(Nc1cnc(-n2nccn2)c(C(F)(F)F)c1)c1cnn(-c2ccc(F)c3nccn23)c1C(F)(F)F [Cpd 4, N-(6-(2H-1,2,3-triazol-2-yl)-5-(trifluoromethyl)pyridin-3-yl)-1-(8-fluoroimidazo[1,2-a]pyridin-5-yl)-5-(trifluoromethyl)-1H-pyrazole-4-carboxamide] | 47 | 50 | 31
10 | Cc1coc(-c2ncc(NC(=O)c3cnn(-c4ccc(F)c5nccn45)c3C(F)(F)F)cc2Cl)n1 [Cpd 10, N-(5-chloro-6-(4-methyloxazol-2-yl)pyridin-3-yl)-1-(8-fluoroimidazo[1,2-a]pyridin-5-yl)-5-(trifluoromethyl)-1H-pyrazole-4-carboxamide] | 123 | 26 | 23
11 | CS(C)(=O)=Nc1ncc(NC(=O)c2cnn(-c3ccc(F)c4nccn34)c2C(F)(F)F)cc1C(F)(F)F [Cpd 30, N-(6-((dimethyl(oxo)-λ^6-sulfanylidene)amino)-5-(trifluoromethyl)pyridin-3-yl)-1-(8-fluoroimidazo[1,2-a]pyridin-5-yl)-5-(trifluoromethyl)-1H-pyrazole-4-carboxamide] |  | 830 | 
12 | O=C(Nc1cnc(-n2nccn2)c(Cl)c1)c1cnn(-c2ccc(Cl)n3nccc23)c1C(F)(F)F [Cpd 15, N-(5-chloro-6-(2H-1,2,3-triazol-2-yl)pyridin-3-yl)-1-(7-chloropyrazolo[1,5-a]pyridin-4-yl)-5-(trifluoromethyl)-1H-pyrazole-4-carboxamide] | 47 | 33 | 31
13 | CO[C@@H](C)c1ncc(NC(=O)c2cnn(-c3ccc(C#N)n4nccc34)c2C(F)(F)F)cc1Cl (single isomer, unassigned) [Cpd 25, (*S)—N-(5-chloro-6-(1-methoxyethyl)pyridin-3-yl)-1-(7-cyanopyrazolo[1,5-a]pyridin-4-yl)-5-(trifluoromethyl)-1H-pyrazole-4-carboxamide] |  | 457 | 
14 | O=C(Nc1cnc([C@H]2CCCO2)c(Cl)c1)c1cnn(-c2ccc(Cl)c3nccn23)c1C(F)(F)F (single isomer, unassigned) [Cpd 18, (*R)—N-(5-chloro-6-(tetrahydrofuran-2-yl)pyridin-3-yl)-1-(8-chloroimidazo[1,2-a]pyridin-5-yl)-5-(trifluoromethyl)-1H-pyrazole-4-carboxamide] |  | 2190 | 
15 | N#Cc1ccc(-n2ncc(C(=O)Nc3cnc([C@@H]4CCCO4)c(Cl)c3)c2C(F)(F)F)c2ccnn12 (single isomer, unassigned) [Cpd 23, (*S)—N-(5-chloro-6-(tetrahydrofuran-2-yl)pyridin-3-yl)-1-(7-cyanopyrazolo[1,5-a]pyridin-4-yl)-5-(trifluoromethyl)-1H-pyrazole-4-carboxamide] | 200 | 36 | 115
16 | O=C(Nc1cnc(-c2ncco2)c(Cl)c1)c1cnn(-c2ccc(F)c3nccn23)c1C(F)(F)F [Cpd 6, N-(5-chloro-6-(oxazol-2-yl)pyridin-3-yl)-1-(8-fluoroimidazo[1,2-a]pyridin-5-yl)-5-(trifluoromethyl)-1H-pyrazole-4-carboxamide] | 257 | 30 | 105
17 | CO[C@H](C)c1ncc(NC(=O)c2cnn(-c3ccc(C#N)n4nccc34)c2C(F)(F)F)cc1Cl (single isomer, unassigned) [Cpd 26, (*R)—N-(5-chloro-6-(1-methoxyethyl)pyridin-3-yl)-1-(7-cyanopyrazolo[1,5-a]pyridin-4-yl)-5-(trifluoromethyl)-1H-pyrazole-4-carboxamide] |  | 562 | 
18 | N#Cc1ccc(-n2ncc(C(=O)Nc3cnc([C@H]4CCCO4)c(Cl)c3)c2C(F)(F)F)c2ccnn12 (single isomer, unassigned) [Cpd 24, (*R)—N-(5-chloro-6-(tetrahydrofuran-2-yl)pyridin-3-yl)-1-(7-cyanopyrazolo[1,5-a]pyridin-4-yl)-5-(trifluoromethyl)-1H-pyrazole-4-carboxamide] |  | 251 | 
19 | CS(=N)(=O)c1ncc(NC(=O)c2cnn(-c3ccc(F)c4nccn34)c2C(F)(F)F)cc1C(F)(F)F (stereo not shown) [Cpd 31, 1-(8-fluoroimidazo[1,2-a]pyridin-5-yl)-N-(6-(S-methylsulfonimidoyl)-5-(trifluoromethyl)pyridin-3-yl)-5-(trifluoromethyl)-1H-pyrazole-4-carboxamide] |  | 3160 | 
20 | O=C(Nc1cnc([C@H]2CCCO2)c(Cl)c1)c1cnn(-c2ccc(Cl)n3nccc23)c1C(F)(F)F (single isomer, unassigned) [Cpd 22, (*R)—N-(5-chloro-6-(tetrahydrofuran-2-yl)pyridin-3-yl)-1-(7-chloropyrazolo[1,5-a]pyridin-4-yl)-5-(trifluoromethyl)-1H-pyrazole-4-carboxamide] |  | 977 | 
21 | O=C(Nc1cnc([C@@H]2CCCO2)c(Cl)c1)c1cnn(-c2ccc(Cl)c3nccn23)c1C(F)(F)F (single isomer, unassigned) [Cpd 20, (*S)—N-(5-chloro-6-(tetrahydrofuran-2-yl)pyridin-3-yl)-1-(8-chloroimidazo[1,2-a]pyridin-5-yl)-5-(trifluoromethyl)-1H-pyrazole-4-carboxamide] |  | 355 | 
22 | CO[C@@H](C)c1ncc(NC(=O)c2cnn(-c3ccc(Cl)n4nccc34)c2C(F)(F)F)cc1Cl (single isomer, unassigned) [Cpd 27, (*S)—N-(5-chloro-6-(1-methoxyethyl)pyridin-3-yl)-1-(7-chloropyrazolo[1,5-a]pyridin-4-yl)-5-(trifluoromethyl)-1H-pyrazole-4-carboxamide] |  | 1020 | 
23 | CO[C@H](C)c1ncc(NC(=O)c2cnn(-c3ccc(Cl)n4nccc34)c2C(F)(F)F)cc1Cl (single isomer, unassigned) [Cpd 28, (*R)—N-(5-chloro-6-(1-methoxyethyl)pyridin-3-yl)-1-(7-chloropyrazolo[1,5-a]pyridin-4-yl)-5-(trifluoromethyl)-1H-pyrazole-4-carboxamide] |  | 1320 | 
24 | CS(C)(=O)=Nc1ncc(NC(=O)c2cnn(-c3ccc(F)c4nccn34)c2C(F)(F)F)cc1Cl [Cpd 33, N-(5-chloro-6-((dimethyl(oxo)-λ^6-sulfanylidene)amino)pyridin-3-yl)-1-(8-fluoroimidazo[1,2-a]pyridin-5-yl)-5-(trifluoromethyl)-1H-pyrazole-4-carboxamide] |  | 980 | 
25 | Cc1cc(NC(=O)c2cnn(-c3ccc(F)c4nccn34)c2C(F)(F)F)cnc1N=S(C)(C)=O [Cpd 29, N-(6-((dimethyl(oxo)-λ^6-sulfanylidene)amino)-5-methylpyridin-3-yl)-1-(8-fluoroimidazo[1,2-a]pyridin-5-yl)-5-(trifluoromethyl)-1H-pyrazole-4-carboxamide] |  | 6000 | 
